Values after ≈ are worked out from the molar mass of the structure shown.
Columns and labels:
Test in all cases: Broth microdilution MIC in iron-depleted CAMHB (IDM)
Assay type in all cases: cell-based
A. baumannii ATCC 17978 = conditions: Acinetobacter baumannii, ATCC17978, read-out: Minimum Inhibitory Concentration, ATCC 17978
In short: (§1)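 CLSI broth microdilution in iron-depleted CAMHB (Chelex 100-treated, Ca, Mg and 10 μM Zn re-added, pH 7.3). Inoculum was 2-8×10^5 CFU/mL from 3-5 h IDM cultures. Plates were incubated at 37° C for 20-24 h (Acinetobacter) or 16-20 h (Pseudomonas), and MIC was read visually as the lowest concentration without growth.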

[1] = tested on: A. baumannii CDC-0033 producing NDM-1, and OXA-94; conditions: Acinetobacter baumannii, read-out: Minimum Inhibitory Concentration, CDC-0033
In short: as §1

[2] = tested on: A. baumannii CDC-0036 OXA-65, and OXA-24; conditions: Acinetobacter baumannii, read-out: Minimum Inhibitory Concentration, CDC-0036
In short: as §1

[3] = tested on: P. aeruginosa (ΔmexAB-oprM); conditions: Pseudomonas aeruginosa, read-out: Minimum Inhibitory Concentration, P. aeruginosa ΔmexAB-OprM
In short: as §1

P. aeruginosa ATCC 27853 = conditions: Pseudomonas aeruginosa, ATCC27853, read-out: Minimum Inhibitory Concentration, P. aeruginosa ATCC 27853
In short: as §1

P. aeruginosa ATCC 35151 = conditions: Pseudomonas aeruginosa, ATCC35151; iron-depleted MHB (IDM); hyper-permeable strain; read-out: Minimum Inhibitory Concentration, P. aeruginosa ATCC 35151
In short: as §1

[4] = tested on: P. aeruginosa CDC-0054 producing VIM-4, OXA-50, and PAO; conditions: Pseudomonas aeruginosa, read-out: Minimum Inhibitory Concentration, P. aeruginosa CDC-0054
In short: as §1

[5] = tested on: P. aeruginosa CDC-0095 producing OXA-50, and PAO; conditions: Pseudomonas aeruginosa, read-out: Minimum Inhibitory Concentration, P. aeruginosa CDC-0095
In short: as §1

In the case of `CS(=O)(=O)N1CCN(C(=O)N[C@@H](C(=O)N[C@H]2Cc3ccc(F)c(C(=O)O)c3OB2O)c2cc(F)c(O)c(O)c2Cl)C1=O` (single isomer, unassigned) [Example 189], the MIC (A. baumannii ATCC 17978) is reported as 0.25 µg/mL (≈ 0.395 µM), the MIC [1] is reported as 2 to 4 µg/mL (≈ 3.16 to 6.32 µM) and the MIC [2] is reported as 2 to 4 µg/mL (≈ 3.16 to 6.32 µM). For the same compound, the MIC [3] was 0.25 µg/mL (≈ 0.395 µM), the MIC (P. aeruginosa ATCC 27853) was 0.5 to 1 µg/mL (≈ 0.79 to 1.58 µM) and the MIC (P. aeruginosa ATCC 35151) was 0.25 µg/mL (≈ 0.395 µM). It also gave an MIC [4] of 0.5 to 1 µg/mL (≈ 0.79 to 1.58 µM) and an MIC [5] of 2 to 4 µg/mL (≈ 3.16 to 6.32 µM).
`Nc1nc(C(NC(=O)N2CCN(CCNC(=O)c3ccc(O)c(O)c3Cl)C(=O)C2=O)C(=O)N[C@H]2Cc3ccc(F)c(C(=O)O)c3OB2O)c(F)s1` (stereo partly drawn) [Example 4, (3R)-3-(2-(2-amino-5-fluorothiazol-4-yl)-2-(4-(2-(2-chloro-3,4-dihydroxybenzamido)ethyl)-2,3-dioxopiperazine-1-carboxamido)acetamido)-7-fluoro-2-hydroxy-3,4-dihydro-2H-benzo[e][1,2]oxaborinine-8-carboxylic acid] showed an MIC (A. baumannii ATCC 17978) of 0.25 µg/mL (≈ 0.333 µM), an MIC [1] of 32 to 64 µg/mL (≈ 42.6 to 85.1 µM) and an MIC [2] of 32 to 64 µg/mL (≈ 42.6 to 85.1 µM). For the same compound, the MIC [3] was 0.25 µg/mL (≈ 0.333 µM), the MIC (P. aeruginosa ATCC 27853) was 0.25 µg/mL (≈ 0.333 µM) and the MIC (P. aeruginosa ATCC 35151) was 0.25 µg/mL (≈ 0.333 µM). For the same compound, the MIC [4] was 0.5 to 1 µg/mL (≈ 0.665 to 1.33 µM) and the MIC [5] was 0.5 to 1 µg/mL (≈ 0.665 to 1.33 µM).
Work on `CCN1CCN(C(=O)N[C@@H](C(=O)N[C@H]2Cc3ccc(F)c(C(=O)O)c3OB2O)c2ccc(O)c(O)c2)C(=O)C1=O` [Example 211, (R)-3-((R)-2-(3,4-dihydroxyphenyl)-2-(4-ethyl-2,3-dioxopiperazine-1-carboxamido)acetamido)-7-fluoro-2-hydroxy-3,4-dihydro-2H-benzo[e][1,2]oxaborinine-8-carboxylic acid] yielded an MIC (A. baumannii ATCC 17978) of 2 to 4 µg/mL (≈ 3.58 to 7.16 µM), an MIC [1] of 32 to 64 µg/mL (≈ 57.3 to 115 µM) and an MIC [2] of 8 to 16 µg/mL (≈ 14.3 to 28.7 µM). For the same compound, the MIC [3] was 0.25 µg/mL (≈ 0.448 µM), the MIC (P. aeruginosa ATCC 27853) was 8 to 16 µg/mL (≈ 14.3 to 28.7 µM) and the MIC (P. aeruginosa ATCC 35151) was 0.25 µg/mL (≈ 0.448 µM). It also gave an MIC [4] of 8 to 16 µg/mL (≈ 14.3 to 28.7 µM) and an MIC [5] of 8 to 16 µg/mL (≈ 14.3 to 28.7 µM).
Compound `CCN1CCN(C(=O)N[C@H](C(=O)N[C@H]2Cc3ccc(F)c(C(=O)O)c3OB2O)c2ccc(O)c(O)c2)C(=O)C1=O` [Example 210, (R)-3-((S)-2-(3,4-dihydroxyphenyl)-2-(4-ethyl-2,3-dioxopiperazine-1-carboxamido)acetamido)-7-fluoro-2-hydroxy-3,4-dihydro-2H-benzo[e][1,2]oxaborinine-8-carboxylic acid] has an MIC (A. baumannii ATCC 17978) greater than 128 µg/mL, an MIC [1] greater than 128 µg/mL and an MIC [2] greater than 128 µg/mL. The MIC [3] was 8 to 16 µg/mL (≈ 14.3 to 28.7 µM), the MIC (P. aeruginosa ATCC 27853) was greater than 128 µg/mL and the MIC (P. aeruginosa ATCC 35151) was 2 to 4 µg/mL (≈ 3.58 to 7.16 µM). For the same compound, the MIC [4] was greater than 128 µg/mL and the MIC [5] was greater than 128 µg/mL.
`O=C(NCCCN1CCN(C(=O)NC(C(=O)N[C@H]2Cc3cccc(C(=O)O)c3OB2O)c2ncc(O)cc2F)C(=O)C1=O)c1ccc(O)c(O)c1Cl` (stereo partly drawn) [Example 1, (3R)-3-(2-(4-(3-(2-chloro-3,4-dihydroxybenzamido)propyl)-2,3-dioxopiperazine-1-carboxamido)-2-(3-fluoro-5-hydroxypyridin-2-yl)acetamido)-2-hydroxy-3,4-dihydro-2H-benzo[e][1,2]oxaborinine-8-carboxylic acid] showed an MIC [3] of 2 to 4 µg/mL (≈ 2.69 to 5.38 µM), an MIC (P. aeruginosa ATCC 27853) of 8 to 16 µg/mL (≈ 10.8 to 21.5 µM) and an MIC (P. aeruginosa ATCC 35151) of 0.5 to 1 µg/mL (≈ 0.673 to 1.35 µM).
`CS(=O)(=O)N1CCN(C(=O)NC(C(=O)N[C@H]2Cc3ccc(F)c(C(=O)O)c3OB2O)c2c(Cl)cc(O)c(O)c2F)C1=O` (stereo partly drawn) [Example 208, (3R)-3-(2-(6-chloro-2-fluoro-3,4-dihydroxyphenyl)-2-(3-(methylsulfonyl)-2-oxoimidazolidine-1-carboxamido)acetamido)-7-fluoro-2-hydroxy-3,4-dihydro-2H-benzo[e][1,2]oxaborinine-8-carboxylic acid] was tested, and the MIC (A. baumannii ATCC 17978) was 0.5 to 1 µg/mL (≈ 0.79 to 1.58 µM), the MIC [1] was 32 to 64 µg/mL (≈ 50.6 to 101 µM) and the MIC [2] was 8 to 16 µg/mL (≈ 12.6 to 25.3 µM). For the same compound, the MIC [3] was 2 to 4 µg/mL (≈ 3.16 to 6.32 µM), the MIC (P. aeruginosa ATCC 27853) was 2 to 4 µg/mL (≈ 3.16 to 6.32 µM) and the MIC (P. aeruginosa ATCC 35151) was 0.25 µg/mL (≈ 0.395 µM). It also gave an MIC [4] of 32 to 64 µg/mL (≈ 50.6 to 101 µM) and an MIC [5] of 32 to 64 µg/mL (≈ 50.6 to 101 µM).
With `C[C@H]1CN(CCNC(=O)c2ccc(O)c(O)c2Cl)C(=O)C(=O)N1C(=O)NC(C(=O)N[C@H]1Cc2cccc(C(=O)O)c2OB1O)c1ncc(O)cc1F` (stereo partly drawn) [Example 2, (3R)-3-(2-((S)-4-(2-(2-chloro-3,4-dihydroxybenzamido)ethyl)-6-methyl-2,3-dioxopiperazine-1-carboxamido)-2-(3-fluoro-5-hydroxypyridin-2-yl)acetamido)-2-hydroxy-3,4-dihydro-2H-benzo[e][1,2]oxaborinine-8-carboxylic acid] the MIC (A. baumannii ATCC 17978) was 0.5 to 1 µg/mL (≈ 0.673 to 1.35 µM), the MIC [1] was 8 to 16 µg/mL (≈ 10.8 to 21.5 µM) and the MIC [2] was 32 to 64 µg/mL (≈ 43.1 to 86.2 µM). It also gave an MIC [3] of 0.25 µg/mL (≈ 0.337 µM), an MIC (P. aeruginosa ATCC 27853) of 2 to 4 µg/mL (≈ 2.69 to 5.38 µM) and an MIC (P. aeruginosa ATCC 35151) of 0.25 µg/mL (≈ 0.337 µM). The MIC [4] was 2 to 4 µg/mL (≈ 2.69 to 5.38 µM) and the MIC [5] was 8 to 16 µg/mL (≈ 10.8 to 21.5 µM).

Source: US20230114728A1 (Venatorx Pharmaceuticals, Inc., priority 2019, published 2023)
